# Values quoted from earlier work, collected in publication PMC11547388, “Toxicokinetics and Tissue Distribution of the Hepatotoxic Triterpenoid Saponin Pterocephin A in Rats Using the Ultra-Performance Liquid Chromatography–Tandem Mass Spectrometry (UPLC-MS/MS) Method” (Molecules, 2024).
# Design: method as in PMID 37253396
# Conditions: in vivo, HPLC-QQQ-MS/MS
smiles,measurement,value
"C=C(C)[C@@H]1CC[C@]2(C(=O)O[C@@H]3O[C@H](CO[C@@H]4O[C@H](CO)[C@@H](O[C@@H]5O[C@@H](C)[C@H](O)[C@@H](O)[C@H]5O)[C@H](O)[C@H]4O)[C@@H](O)[C@H](O)[C@H]3O)CC[C@]3(C)[C@H](CC[C@@H]4[C@@]5(C)CC[C@H](O[C@@H]6OC[C@H](O)[C@H](O)[C@H]6O[C@@H]6O[C@@H](C)[C@H](O)[C@@H](O)[C@H]6O)[C@@](C)(CO)[C@@H]5CC[C@]43C)[C@@H]12 [AB4, anemoside B4]",bioavailability,less than 1%
